Data from patent publication US20220280561A1, “COPPER-ATSM FOR TREATING NEURODEGENERATIVE DISORDERS ASSOCITED WITH MITOCHONDRIAL DYSFUNCTION” (RESEARCH INSTITUTE AT NATIONWIDE CHILDREN'S HOSPITAL, priority 2019, published 2022).

Assays:
Type in all cases: cell-based, human
SCN2A induced neurons = assay: chemical differentiation of SCN2A patient fibroblasts to iNeurons, neuron survival; conditions: 0.01% of CuATSM on days five and seven of differentiation
Protocol: (§1) FIG. 8A) Schematic protocol of iNeuron reprogramming from patient fibroblasts. Fibroblast cells were seeded on 12-well plates and differentiated for 7 days into iNeurons. iNeurons were fixed and imaged/immunostained for Tuj1 neuronal marker. FIG. 8B) Representative images of fibroblasts (before) and iNeurons after reprogramming. FIG. 8C) Representative bright field images of iNeurons following seven days of differentiation (scale bar=50 μm). On day five of differentiation, cells were treated with 0.01% of CuATSM as well as on day seven. FIG. 8D) Quantification of neuron survival percentage after seven days of differentiation. Tuj1 positive cells from three to five different images per line were counted and data was normalized to the average count of healthy control. […] 24 hours later mouse neurons were seeded on top of astrocyte monolayer and viability was determined following 3 days in culture. […]
Neuronal differentiation was performed as previously described (Hu et. al. 2016). […] At 5-7 days neurons were imaged and the number of cells expressing neuronal markers such as Tuj1 and Map2 and contained neurite outgrowths greater than two times the soma were counted.
The effect of CuATSM treatment on SCN2A iAstrocytes mediated neuron toxicity was investigated. […] Neuron survival was quantified following seven days of differentiation by counting cells with neurites two times the soma length. […]

iNOS = assay: western blot of iNOS levels in iAstrocytes
Protocol: Western blotting: iAstrocyte pellets were lysed in RIPA or IP buffer and with sonication or freeze thaw respectively. 50 ug of protein was loaded into precast gels and separated by electrophoresis. Protein was then transferred to a PVDF membrane, blocked with odyssey blocking buffer (Licor) and incubated with primary antibody overnight. The following day membranes were washed and incubated with Licor secondary antibodies for one hour at room temperature. Membranes were imaged using Odyssey CLx.
Since nitric oxide is produced by inducible nitric oxide synthase (iNOS), the overall levels of iNOS was quantified by western blot. While CuATSM had no effect on nitric oxide synthase levels for most patient lines, there were two lines (ALS4 and ALS6) where these levels were reduced (FIGS. 4C and 4D). […] Thus iNOS and nitric oxide production are not mediating the therapeutic effect of CuATSM.

[1] = tested on: SCN2A iAstrocytes co-cultured with mouse neurons; assay: co-culture of CuATSM-pretreated SCN2A iAstrocytes with mouse GFP neurons; conditions: 3 days in culture
Protocol: as §1, with “control. FIG. 8E) Schematic of drug screen co-culture assay. Astrocytes were treated during differentiation with CuATSM.” for “control.”
The effect of CuATSM treatment on SCN2A iAstrocytes mediated neuron toxicity was investigated. […] Neuron survival was quantified following seven days of differentiation by counting cells with neurites two times the soma length. […] Twenty-four hours later, motor neurons were seeded on top of the astrocyte monolayer and viability was determined following 3 days in culture. […]

Nav1.2 = Nav1.2 staining of SCN2A-1 patient induced neurons; conditions: SCN2A-1 induced neurons treated on day 5 and 7 of differentiating
Protocol: Next, SCN2A patient brain organoids were treated with CuATSM and RNA Seq analysis was performed. […] Uniform manifold approximation and projection (UMAP) for dimension reduction was used for visualization. […] Importantly, expression of SCN2A gene is reduced upon treatment with CuATSM (FIG. 18D). These findings were confirmed by directly differentiating the same patient fibroblasts (SCN2A-1) into induced neurons. Neurons were treated with CuATSM on day 5 and 7 of differentiating then stained for Nav1.2. […] Thus CuATSM can also downregulate SCN2A expression in […] which may add additional therapeutic benefit for these patients.

CN=C([S-])N/N=C(C)/C(C)=N/NC([S-])=NC.[Cu+2] [CuATSM, diacetyl-bis(4-methylthiosemicarbazonato) copperII]
neuron survival after seven days of differentiation (SCN2A induced neurons): increase neuronal survival | nitric oxide synthase (iNOS) levels (iNOS; lines ALS4 and ALS6): reduced | nitric oxide synthase (iNOS) levels (iNOS; most patient lines): no effect | neuron survival following co-culture ([1]; SCN2A-1 and SCN2A-3 iAstrocytes pretreated during differentiation): significantly increase neuron survival | neuron survival following co-culture ([1]; SCN2A-2 iAstrocytes pretreated during differentiation): trend towards increased survival | Nav1.2 protein levels (Nav1.2): reduced
